Test results published in patent publication US9255122B2, “Cholate and deoxycholate-based amphiphiles for membrane protein manipulation” (Wisconsin Alumni Research Foundation, priority 2013, dated 2016).

Experiments:
LHI-RC complex [1] = tested on: T1, LHI-RC complex; assay: Long-term stability of LHI-RC complexes, absorbance ratio A875/A680 over 20-day incubation at room temperature; set-up: species or system Rhodobacter capsulatus; conditions: detergent at CMC+0.04 wt. %, room temperature
T1 construct: made in house; host or cells: Rhodobacter capsulatus U43[pUHTM86Bgl], intracytoplasmic membranes
Protocol: The favorable properties of CAO and DCAO in terms of membrane protein stabilization prompted further evaluation of these reagents' ability to stabilize protein superassemblies as a function of time. DDM-purified samples were diluted with solutions containing CAO or LDAO. […] Protein stability was monitored over time at room temperature by measuring absorbance ratios (A875/A680) (absorption at 680 nm arises from the oxidation of bacteriochlorophyll dissociated from LHI upon denaturation). […] Of note, DCAO was not evaluated in this long-term stability of the superassembly due to its high tendency to form a hydrogel at this high concentration.
R. capsulatus superassembly was purified in DDM according to the protocol described above. The DDM-purified sample was then diluted to the solutions containing individual detergents (CAO, CAO-1, DCAO, DCAO-2, DDM and LDAO). The dilution makes DDM concentration reached far below its CMC and the final individual detergent concentration at CMC+0.04 wt % or CMC+1.0 wt %. The spectra of individual detergents-solubilized LHI-RC complexes were taken in a range of 650 nm to 950 nm at regular intervals over 20 days during the incubation at room temperature. Protein integrity in each sample was assessed via changes in absorbance ratio (A875/A680) with time.
Similar criteria and protocols were used to judge the ability of amphiphiles to maintain solubilized and purified superassembly for extended periods. In this case, UV Vis-nearIR spectra were recorded at regular intervals. The degradation of the material could be monitored with the A875/A680 absorbance ratio, which decreased with time and sample integrity as the dominant 875 nm absorption of intact LHI disappeared and a 680 nm band appeared, indicating the presence of unbound, oxidized cofactors.

[2] = Critical micelle concentration (CMC) estimated with hydrophobic fluorescent dye diphenylhexatriene (DPH); type: physicochemical
Text: The “Critical Micelle Concentration” (CMC) refers to the concentration of a detergent (e.g., an amphiphile as described herein) in an aqueous solution at which the detergent molecules self-assemble into micelles. Below the CMC, detergents are mostly monomeric; above the CMC, micelle concentration increases linearly with detergent concentration. The CMC is dependent upon many factors and is detergent-specific. The CMC of a detergent can be determined experimentally by measuring the solubilization of a water-insoluble dye or fluorophore while varying the concentration of detergent. A CMC may also be determined by measuring the diminution of the surface tension of an aqueous solution as a function of detergent concentration (CMCs determined by either method correlate with each other). The CMC is determined by extrapolating the plot of solubilization vs. concentration (or surface tension vs. concentration) in the two linear regions above and below the CMC. Where the two lines intersect is the CMC.
The Critical Micelle Concentrations (CMCs) of compounds of the invention can be determined by standard techniques known to those of skill in the art. For example, CMCs of CAO and DCAO can be determined by monitoring uptake of a fluorescent dye (e.g., a dye such as 1,6-diphenylhexatriene) with increasing detergent concentration, monitored by fluorescence spectroscopy.

[3] = Water solubility and hydrogel formation of amphiphiles; type: physicochemical
Protocol: The amphiphiles prepared, except LDAO and DCAO, are water-soluble at up to 10 wt. %. […] DCAO was initially soluble, at approximately 1.0 wt. %, but tends to form a hydrogel over time at concentrations of greater than about 0.3 wt. %. Critical micelle concentration (CMC) values were estimated by using a hydrophobic fluorescent dye, diphenyhexatriene (DPH) (see Laible et al., Biochemistry 2003, 42, 1718-1730).
The CMC values were determined for CAO-1 (˜7.2 mM; ˜0.38 wt. %) and DCAO-2 (˜1.1 mM; ˜0.056 wt. %), which are similar to those of their parent compounds, CAO and DCAO, respectively (see Table 2.1 above). […] All of these cholate and deoxycholate-based agents preserved the native conformation of the superassembly during protein solubilization and purification processes.

LHI-RC complex [4] = tested on: T1, LHI-RC complex; assay: Integrity of detergent-solubilized and Ni-NTA-purified LHI-RC complexes by UV-Vis absorption spectra; set-up: species or system Rhodobacter capsulatus; conditions: purified protein eluted at 1×CMC detergent
Text: The presence of various types of cofactors such as bacteriochlorophyll and carotenoids embedded in the complexes, thereby providing a well-featured UV-Vis absorption spectrum, facilitates the assessment of the protein integrity for a set of detergents via optical spectrophotometry. The native conformation of the protein is represented by a very strong peak at 875 nm in its absorption spectrum, while the intact RC but denatured LHI, or denatured LHI and RC, produce rather intense peaks at ˜800 nm and ˜760 nm, respectively.
(§1) These two reagents were chosen as control agents for the assay. For the superassembly solubilization, the intracytoplasmic R. capsulatus membranes enriched in LHI-RC complex were treated with 10×CMC individual new agents except DPA-2; DPA-2 was tested at 2×CMC based on its high CMC value. On the other hand, conventional detergents (LDAO and DDM) were used at 50×CMC due to the small CMC value in terms of wt. %. The solubilized protein portion and insolubilized part containing cellular debris and insolubilized membranes were separated via ultracentrifugation and isolated as the supernatant and pellet, respectively. The absorption spectra of these two portions were taken to assess detergents efficacy on the protein solubilization and stabilization.
For the purification, the detergent-solubilized protein samples were subjected to a metal affinity column chromatography and eluted with the elution buffer containing 1M imidazole and 1×CMC individual detergents. The UV-Visible spectra of the resulting protein samples were taken to investigate the integrity of detergent-purified LHI-RC complexes.
(§2) The solubilization and purification of the R. capsulatus superassembly were conducted according to the published protocol (Chae et al., ChemBioChem 2008, 9, 1706-1709). First, specialized photosynthetic membranes called intracytoplasmic membranes were obtained from an engineered strain of Rhodobacter (R.) capsulatus, U43[pUHTM86Bgl], lacking the light-harvesting complex II (LHII). The solubilization experiment began by thawing and homogenizing frozen aliquots of R. capsulatus membranes at room temperature. The solution was then incubated with mild agitation at 32° C. for 30 min. Subsequently, the solution was further incubated for 30 min after adding individual detergents (2×CMC for DPA-2, CAO and CAO-1, 10×CMC for DPA-1, […], DCAO and DCAO-2, 50×CMC for DDM and LDAO) into 1.0 mL solutions of R. capsulatus superassembly. The solution was then subjected to ultracentrifugation at 310,000 g at 4° C. for 30 min to remove membrane debris.
(§3) The spectra of solubilized supernatant and solubilized pellet were taken in a range from 650 nm to 950 nm after being homogenized. For the purification of the protein, detergent-solubilized samples were transferred into a new 1.7 mL microcentrifuge tube containing Ni-NTA resin (Qiagen, Inc.; Valencia, Calif.; pre-equilibriated and stored in an equal volume of buffer containing 10 mM Tris, pH 7.8, and 100 mM NaCl). Following one-hour incubation at 4° C. for protein binding, the resins were collected and washed twice with 0.5 mL of binding buffer (a pH 7.8 Tris solution containing DDM at 1×CMC). Purified protein solution were collected by eluting three times with 0.20 mL elution buffer solutions containing 1 M imidazole (otherwise, this buffer was identical to binding buffer; the pH of each solution was readjusted to pH=7.8) and diluted with 0.4 mL of the binding buffer to reach 1.0 mL solution. UV-Vis spectra of the superassembly purified in individual detergents were then taken to assess the stability of the protein.

LHI-RC complex [5] = tested on: T1, LHI-RC complex; assay: Solubilization of LHI-RC complex from R. capsulatus intracytoplasmic membranes (pellet/supernatant absorbance spectra); set-up: species or system Rhodobacter capsulatus; conditions: 2×CMC for DPA-2, CAO, CAO-1; 10×CMC for other new agents; 50×CMC for DDM and LDAO; 32° C., 30 min
Protocol: as §1, §2, §3

[6] = estimated with DPH, Example 2, Table 2.1

T1 sequence (P11847 whole entry): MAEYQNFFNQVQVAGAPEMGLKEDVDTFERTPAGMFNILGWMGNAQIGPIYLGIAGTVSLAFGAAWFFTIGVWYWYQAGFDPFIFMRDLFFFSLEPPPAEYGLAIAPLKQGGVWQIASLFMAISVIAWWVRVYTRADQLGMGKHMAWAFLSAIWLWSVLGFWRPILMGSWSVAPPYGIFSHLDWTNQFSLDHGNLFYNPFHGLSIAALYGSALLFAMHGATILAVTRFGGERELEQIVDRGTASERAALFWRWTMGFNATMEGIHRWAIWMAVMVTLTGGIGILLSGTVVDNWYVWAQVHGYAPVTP
T1 sequence (P19057 whole entry, further chain): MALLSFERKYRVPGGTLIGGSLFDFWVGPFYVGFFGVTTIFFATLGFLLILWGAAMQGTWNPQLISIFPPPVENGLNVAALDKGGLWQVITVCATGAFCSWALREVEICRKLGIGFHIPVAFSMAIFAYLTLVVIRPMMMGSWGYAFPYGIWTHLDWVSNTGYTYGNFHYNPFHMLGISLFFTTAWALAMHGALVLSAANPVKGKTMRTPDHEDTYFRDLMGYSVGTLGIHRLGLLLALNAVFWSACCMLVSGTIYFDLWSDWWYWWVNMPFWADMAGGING
T1 sequence (P19056 whole entry, further chain): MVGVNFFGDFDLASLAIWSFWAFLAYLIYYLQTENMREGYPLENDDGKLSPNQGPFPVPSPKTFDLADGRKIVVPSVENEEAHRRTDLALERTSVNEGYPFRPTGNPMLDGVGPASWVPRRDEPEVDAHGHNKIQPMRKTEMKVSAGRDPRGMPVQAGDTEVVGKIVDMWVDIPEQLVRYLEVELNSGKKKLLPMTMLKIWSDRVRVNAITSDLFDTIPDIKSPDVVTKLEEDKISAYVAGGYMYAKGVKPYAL
T1 sequence (P02948 whole entry, further chain): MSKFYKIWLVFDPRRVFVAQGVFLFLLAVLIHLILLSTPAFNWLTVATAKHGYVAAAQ
T1 sequence (P02950 whole entry, further chain): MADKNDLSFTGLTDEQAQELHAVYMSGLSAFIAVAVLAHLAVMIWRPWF

## CC(CCC(=O)NCCC[N+](C)(C)[O-])C1CCC2C3CCC4CC(O)CCC4(C)C3CC(O)C12C (centres unmarked) [DCAO]
LHI-RC complex [1]
  long-term stability of superassembly (A875/A680), in words: more stable than DDM-solubilized protein
[2]
  CMC fold lower than that of CHAPS or CHAPSO: approximately 8 fold
[2]; Example 3, Table 3-2
  CMC: 1.0 mM
  CMC (%): 0.049%
[2]; [6]
  CMC: ~1.3 mM
  CMC (wt. %): ~0.064 wt. %
[3]
  hydrogel formation (in words): did not form a hydrogel
[3]; in water
  concentration at which a hydrogel tends to form over time: greater than 0.3 wt. %
[3]; water-soluble at up to the stated concentration
  water solubility: approximately 1.0 wt. %
LHI-RC complex [4]
  native structure of LHI-RC complexes after solubilization and purification (in words): fully retained as effectively as DDM
LHI-RC complex [5]
  SY (%) Solubilization yield of LHI-RC complex from the membrane: ~70%
